For one assay, the system named is Alopecurus myosuroides (ALOMY). As to the kind of experiment: Glasshouse herbicidal test, pre- and post-emergence, percentage damage to the plant. The class given is in vivo. Particulars: post-emergence, 250 g/h, evaluated after 13 days. The protocol:
(§1) Seeds of a variety of test species are sown in standard soil in pots (Lolium perenne (LOLPE), Setaria faberi (SETFA), Alopecurus myosuroides (ALOMY), Echinochloa crus-galli (ECHCG), Avena fatua (AVEFA)). After cultivation for one day (pre-emergence) or after 8 days cultivation (post-emergence) under controlled conditions in a glasshouse (at 24/16° C., day/night; 14 hours light; 65% humidity), the plants are sprayed with an aqueous spray solution derived from the formulation of the technical active ingredient in acetone/water (50:50) solution containing 0.5% Tween 20 (polyoxyethelyene sorbitan monolaurate, CAS RN 9005-64-5). Compounds are applied at 250 g/h. The test plants are then grown in a glasshouse under controlled conditions in a glasshouse (at 24/16° C., day/night; 14 hours light; 65% humidity) and watered twice daily. After 13 days for pre and post-emergence, the test is evaluated for the percentage damage caused to the plant. The biological activities are shown in the following table on a five-point scale (5=80-100%; 4=60-79%; 3=40-59%; 2=20-39%; 1=0-19%).
On to `CC#Cc1cc(C)c(C2C(=O)CC3(C=CN(C(=O)NC(C)(C)C)CC3)CC2=O)c(C)c1` (stereo not shown) [Compound A53], for which the “ALOMY POST percentage damage caused to the plant (five-point scale)” value (shortened to “ALOMY POST percentage damage caused”) was 5 (5=80-100%).

Take `CC#Cc1cc(C)c(C2C(=O)CC3(C=CN(C(=O)NC(=O)C(C)(C)C)CC3)CC2=O)c(C)c1` (stereo not shown) [Compound A54]: the “ALOMY POST percentage damage caused” value is listed as 5 (5=80-100%).

For the compound `CC#Cc1cc(C)c(C2C(=O)CC3(C=CN(S(=O)(=O)CC)CC3)CC2=O)c(C)c1` (stereo not shown) [Compound A55], the “ALOMY POST percentage damage caused” value is 5 (5=80-100%).

In the case of `CC#Cc1cc(C)c(C2C(=O)CC3(C=CN(C(=O)C(F)F)CC3)CC2=O)c(C)c1` (stereo not shown) [Compound A56], the “ALOMY POST percentage damage caused” value is reported as 5 (5=80-100%).

The same assay, now with this note: pre-emergence, 250 g/h, evaluated after 13 days.
On to `CC#Cc1cc(C)c(C2C(=O)CC3(C=CN(C(=O)NC(C)(C)C)CC3)CC2=O)c(C)c1` (stereo not shown) [Compound A53], for which the “ALOMY PRE percentage damage caused to the plant (five-point scale)” value (“ALOMY PRE percentage damage caused” below) is 5 (5=80-100%).

Consider `CC#Cc1cc(C)c(C2C(=O)CC3(C=CN(C(=O)NC(=O)C(C)(C)C)CC3)CC2=O)c(C)c1` (stereo not shown) [Compound A54], for which the “ALOMY PRE percentage damage caused” value is 5 (5=80-100%).

As for `CC#Cc1cc(C)c(C2C(=O)CC3(C=CN(S(=O)(=O)CC)CC3)CC2=O)c(C)c1` (stereo not shown) [Compound A55], the “ALOMY PRE percentage damage caused” value was 5 (5=80-100%).

With `CC#Cc1cc(C)c(C2C(=O)CC3(C=CN(C(=O)C(F)F)CC3)CC2=O)c(C)c1` (stereo not shown) [Compound A56], the “ALOMY PRE percentage damage caused” value is given as 5 (5=80-100%).

A further assay concerns Avena fatua (AVEFA). The assay is described as above. Particulars: post-emergence, 250 g/h, evaluated after 13 days. The class given is in vivo. The protocol: as §1
Consider `CC#Cc1cc(C)c(C2C(=O)CC3(C=CN(C(=O)NC(C)(C)C)CC3)CC2=O)c(C)c1` (stereo not shown) [Compound A53], for which the “AVEFA POST percentage damage caused to the plant (five-point scale)” value (“AVEFA POST percentage damage caused” for short) is 4 (4=60-79%).

On to `CC#Cc1cc(C)c(C2C(=O)CC3(C=CN(C(=O)NC(=O)C(C)(C)C)CC3)CC2=O)c(C)c1` (stereo not shown) [Compound A54], for which the “AVEFA POST percentage damage caused” value is given as 5 (5=80-100%).

Take `CC#Cc1cc(C)c(C2C(=O)CC3(C=CN(S(=O)(=O)CC)CC3)CC2=O)c(C)c1` (stereo not shown) [Compound A55]: the “AVEFA POST percentage damage caused” value is reported as 5 (5=80-100%).

`CC#Cc1cc(C)c(C2C(=O)CC3(C=CN(C(=O)C(F)F)CC3)CC2=O)c(C)c1` (stereo not shown) [Compound A56]: the “AVEFA POST percentage damage caused” value is on record as 5 (5=80-100%).

Staying with this assay, now noted: pre-emergence, 250 g/h, evaluated after 13 days.
Turning to `CC#Cc1cc(C)c(C2C(=O)CC3(C=CN(C(=O)NC(C)(C)C)CC3)CC2=O)c(C)c1` (stereo not shown) [Compound A53], the “AVEFA PRE percentage damage caused to the plant (five-point scale)” value (shortened to “AVEFA PRE percentage damage caused”) is recorded as 2 (2=20-39%).

Turning to `CC#Cc1cc(C)c(C2C(=O)CC3(C=CN(C(=O)NC(=O)C(C)(C)C)CC3)CC2=O)c(C)c1` (stereo not shown) [Compound A54], the “AVEFA PRE percentage damage caused” value is reported as 5 (5=80-100%).

Consider `CC#Cc1cc(C)c(C2C(=O)CC3(C=CN(S(=O)(=O)CC)CC3)CC2=O)c(C)c1` (stereo not shown) [Compound A55], for which the “AVEFA PRE percentage damage caused” value was 5 (5=80-100%).

On to `CC#Cc1cc(C)c(C2C(=O)CC3(C=CN(C(=O)C(F)F)CC3)CC2=O)c(C)c1` (stereo not shown) [Compound A56], for which the “AVEFA PRE percentage damage caused” value was 5 (5=80-100%).

A further assay relates to Echinochloa crus-galli (ECHCG). The assay is described as above. The class given is in vivo. As to conditions: post-emergence, 250 g/h, evaluated after 13 days. The protocol:
as §1
As for `CC#Cc1cc(C)c(C2C(=O)CC3(C=CN(C(=O)NC(C)(C)C)CC3)CC2=O)c(C)c1` (stereo not shown) [Compound A53], the “ECHCG POST percentage damage caused to the plant (five-point scale)” value (shortened to “ECHCG POST percentage damage caused”) is on record as 5 (5=80-100%).

On to `CC#Cc1cc(C)c(C2C(=O)CC3(C=CN(C(=O)NC(=O)C(C)(C)C)CC3)CC2=O)c(C)c1` (stereo not shown) [Compound A54], for which the “ECHCG POST percentage damage caused” value was 5 (5=80-100%).

For the compound `CC#Cc1cc(C)c(C2C(=O)CC3(C=CN(S(=O)(=O)CC)CC3)CC2=O)c(C)c1` (stereo not shown) [Compound A55], the “ECHCG POST percentage damage caused” value was 5 (5=80-100%).

On to `CC#Cc1cc(C)c(C2C(=O)CC3(C=CN(C(=O)C(F)F)CC3)CC2=O)c(C)c1` (stereo not shown) [Compound A56], for which the “ECHCG POST percentage damage caused” value was 5 (5=80-100%).

Still in this assay, the particulars now being: pre-emergence, 250 g/h, evaluated after 13 days.
For `CC#Cc1cc(C)c(C2C(=O)CC3(C=CN(C(=O)NC(C)(C)C)CC3)CC2=O)c(C)c1` (stereo not shown) [Compound A53], the “ECHCG PRE percentage damage caused to the plant (five-point scale)” value (“ECHCG PRE percentage damage caused” below) is on record as 5 (5=80-100%).

For `CC#Cc1cc(C)c(C2C(=O)CC3(C=CN(C(=O)NC(=O)C(C)(C)C)CC3)CC2=O)c(C)c1` (stereo not shown) [Compound A54], the “ECHCG PRE percentage damage caused” value is 5 (5=80-100%).

For the compound `CC#Cc1cc(C)c(C2C(=O)CC3(C=CN(S(=O)(=O)CC)CC3)CC2=O)c(C)c1` (stereo not shown) [Compound A55], the “ECHCG PRE percentage damage caused” value is 5 (5=80-100%).

As for `CC#Cc1cc(C)c(C2C(=O)CC3(C=CN(C(=O)C(F)F)CC3)CC2=O)c(C)c1` (stereo not shown) [Compound A56], the “ECHCG PRE percentage damage caused” value is on record as 5 (5=80-100%).

Another assay deals with Lolium perenne (LOLPE). The description is as above. The class given is in vivo. As to conditions: post-emergence, 250 g/h, evaluated after 13 days. The procedure:
as §1
Consider `CC#Cc1cc(C)c(C2C(=O)CC3(C=CN(C(=O)NC(C)(C)C)CC3)CC2=O)c(C)c1` (stereo not shown) [Compound A53], for which the “LOLPE POST percentage damage caused to the plant (five-point scale)” value (“LOLPE POST percentage damage caused” for short) is 5 (5=80-100%).

With `CC#Cc1cc(C)c(C2C(=O)CC3(C=CN(C(=O)NC(=O)C(C)(C)C)CC3)CC2=O)c(C)c1` (stereo not shown) [Compound A54], the “LOLPE POST percentage damage caused” value is 5 (5=80-100%).

As to `CC#Cc1cc(C)c(C2C(=O)CC3(C=CN(S(=O)(=O)CC)CC3)CC2=O)c(C)c1` (stereo not shown) [Compound A55], the “LOLPE POST percentage damage caused” value is reported as 5 (5=80-100%).

As to `CC#Cc1cc(C)c(C2C(=O)CC3(C=CN(C(=O)C(F)F)CC3)CC2=O)c(C)c1` (stereo not shown) [Compound A56], the “LOLPE POST percentage damage caused” value was 5 (5=80-100%).

Still in this assay, the particulars now being: pre-emergence, 250 g/h, evaluated after 13 days.
For `CC#Cc1cc(C)c(C2C(=O)CC3(C=CN(C(=O)NC(C)(C)C)CC3)CC2=O)c(C)c1` (stereo not shown) [Compound A53], the “LOLPE PRE percentage damage caused to the plant (five-point scale)” value (shortened to “LOLPE PRE percentage damage caused”) is 5 (5=80-100%).

`CC#Cc1cc(C)c(C2C(=O)CC3(C=CN(C(=O)NC(=O)C(C)(C)C)CC3)CC2=O)c(C)c1` (stereo not shown) [Compound A54]: the “LOLPE PRE percentage damage caused” value was 5 (5=80-100%).

For `CC#Cc1cc(C)c(C2C(=O)CC3(C=CN(S(=O)(=O)CC)CC3)CC2=O)c(C)c1` (stereo not shown) [Compound A55], the “LOLPE PRE percentage damage caused” value is 5 (5=80-100%).

Regarding `CC#Cc1cc(C)c(C2C(=O)CC3(C=CN(C(=O)C(F)F)CC3)CC2=O)c(C)c1` (stereo not shown) [Compound A56], the “LOLPE PRE percentage damage caused” value was 5 (5=80-100%).

In a further assay the test system is Setaria faberi (SETFA). Described as above. The format is in vivo. Particulars: post-emergence, 250 g/h, evaluated after 13 days. The protocol:
as §1
As to `CC#Cc1cc(C)c(C2C(=O)CC3(C=CN(C(=O)NC(C)(C)C)CC3)CC2=O)c(C)c1` (stereo not shown) [Compound A53], the “SETFA POST percentage damage caused to the plant (five-point scale)” value (shortened to “SETFA POST percentage damage caused”) is recorded as 5 (5=80-100%).

`CC#Cc1cc(C)c(C2C(=O)CC3(C=CN(C(=O)NC(=O)C(C)(C)C)CC3)CC2=O)c(C)c1` (stereo not shown) [Compound A54]: the “SETFA POST percentage damage caused” value is on record as 5 (5=80-100%).

For `CC#Cc1cc(C)c(C2C(=O)CC3(C=CN(S(=O)(=O)CC)CC3)CC2=O)c(C)c1` (stereo not shown) [Compound A55], the “SETFA POST percentage damage caused” value is listed as 5 (5=80-100%).

On to `CC#Cc1cc(C)c(C2C(=O)CC3(C=CN(C(=O)C(F)F)CC3)CC2=O)c(C)c1` (stereo not shown) [Compound A56], for which the “SETFA POST percentage damage caused” value is 5 (5=80-100%).

The assay is the same for the next values; noted with them: pre-emergence, 250 g/h, evaluated after 13 days.
`CC#Cc1cc(C)c(C2C(=O)CC3(C=CN(C(=O)NC(C)(C)C)CC3)CC2=O)c(C)c1` (stereo not shown) [Compound A53]: the “SETFA PRE percentage damage caused to the plant (five-point scale)” value (“SETFA PRE percentage damage caused” below) is 5 (5=80-100%).

Regarding `CC#Cc1cc(C)c(C2C(=O)CC3(C=CN(C(=O)NC(=O)C(C)(C)C)CC3)CC2=O)c(C)c1` (stereo not shown) [Compound A54], the “SETFA PRE percentage damage caused” value is 5 (5=80-100%).

For the compound `CC#Cc1cc(C)c(C2C(=O)CC3(C=CN(S(=O)(=O)CC)CC3)CC2=O)c(C)c1` (stereo not shown) [Compound A55], the “SETFA PRE percentage damage caused” value is on record as 5 (5=80-100%).

Consider `CC#Cc1cc(C)c(C2C(=O)CC3(C=CN(C(=O)C(F)F)CC3)CC2=O)c(C)c1` (stereo not shown) [Compound A56], for which the “SETFA PRE percentage damage caused” value is listed as 5 (5=80-100%).

The values above are taken from patent US12479804B2, “Herbicidal compounds” (SYNGENTA CROP PROTECTION AG, priority 2019, dated 2025).
